From patent publication US12415844B2, “BCMA specific VCAR compositions and methods for use” (Poseida Therapeutics, Inc., priority 2017, dated 2025)
Where two headings read alike, the source gives them in different places.

Experiments:
[1] = system: cells; experiment: AP1903 amount needed in vitro for effective signaling of cells; format: cell-based; settings: equates to 10-100 nM
Protocol: The fixed dose of AP1903 for injection used, for example, may be 0.4 mg/kg intravenously infused over 2 hours. The amount of AP1903 needed in vitro for effective signaling of cells is 10-100 nM (1600 Da MW). This equates to […] or […]. Doses up to 1 mg/kg were well tolerated in the Phase I study of AP1903 described above. Therefore, 0.4 mg/kg may be a safe and effective dose of AP1903 for this Phase I study in combination with the therapeutic cells.

[2] = system: cells; settings: cited from earlier work
[3] = cited from earlier work

CC[C@H](C(=O)N1CCCC[C@H]1C(=O)O[C@H](CCc1ccc(OC)c(OC)c1)c1cccc(OCC(=O)NCCNC(=O)COc2cccc([C@@H](CCc3ccc(OC)c(OC)c3)OC(=O)[C@@H]3CCCCN3C(=O)[C@@H](CC)c3cc(OC)c(OC)c(OC)c3)c2)c1)c1cc(OC)c(OC)c(OC)c1 (relative stereo) [AP1903, 2-Piperidinecarboxylic acid, 1-[(2S)-1-oxo-2-(3,4,5-trimethoxyphenyl)butyl]-, 1,2-ethanediylbis[imino(2-oxo-2,1-ethanediyl)oxy-3,1-phenylene[(1R)-3-(3,4-dimethoxyphenyl)propylidene]]ester, [2S-[1(R*),2R*[S*[S*[1(R*),2R*]]]]]-(9C1)]
amount needed for effective signaling, converted (1600 Da MW) [1]: 16 to 160 µg/L
amount needed in vitro for effective signaling of cells [2]: 10 to 100 nM
plasma levels versus dose ([3]; 0.01-1.0 mg/kg): directly proportional to dose
plasma level as % of maximal concentration ([3]; 0.5 hours post-dose): approximately 18%
plasma level as % of maximal concentration ([3]; 2 hours post-dose): ~7%
plasma level as % of maximal concentration ([3]; 10 hours post-dose): ~1%
well tolerated doses ([3]; Phase I study): up to 1 mg/kg
safety and tolerability ([3]; dose levels 0.01, 0.05, 0.1, 0.5 and 1.0 mg/kg IV over 2 hours): safe and well tolerated at all dose levels
pharmacokinetic profile ([3]; healthy volunteers): favorable pharmacokinetic profile
mean Cmax ([3]; single doses 0.01-1.0 mg/kg infused IV over 2 hours, healthy volunteers, plasma): 10 to 1275 ng/mL
